Reference: patent publication US11878973B2, “Bicyclic compounds and their uses” (NOVARTIS AG, priority 2021, dated 2024)
Where two headings read alike, the source gives them in different places.

Columns and labels:
DLD1-WRN-KO cells = assay: Proliferation assay DLD1-WRN-KO (CellTiterGlo, 96 hours; off-target effects); conditions: read-out: Proliferation Assay DLD1-WRN-KO (GI50)
SW48 cells = assay: Proliferation assay SW48 (CellTiterGlo, 96 hours)
WRN helicase = WRN helicase (Homo sapiens (Human), UniProt Q14191); assay: In vitro enzymatic activity assay on WRN helicase (DNA dependent ATPase assay, ADP-Glo); type: biochemical; conditions: geometric means of at least 2 determinations; read-out: WRN ATPase Activity (IC50)
WRN helicase, sequence (Q14191 517-1238): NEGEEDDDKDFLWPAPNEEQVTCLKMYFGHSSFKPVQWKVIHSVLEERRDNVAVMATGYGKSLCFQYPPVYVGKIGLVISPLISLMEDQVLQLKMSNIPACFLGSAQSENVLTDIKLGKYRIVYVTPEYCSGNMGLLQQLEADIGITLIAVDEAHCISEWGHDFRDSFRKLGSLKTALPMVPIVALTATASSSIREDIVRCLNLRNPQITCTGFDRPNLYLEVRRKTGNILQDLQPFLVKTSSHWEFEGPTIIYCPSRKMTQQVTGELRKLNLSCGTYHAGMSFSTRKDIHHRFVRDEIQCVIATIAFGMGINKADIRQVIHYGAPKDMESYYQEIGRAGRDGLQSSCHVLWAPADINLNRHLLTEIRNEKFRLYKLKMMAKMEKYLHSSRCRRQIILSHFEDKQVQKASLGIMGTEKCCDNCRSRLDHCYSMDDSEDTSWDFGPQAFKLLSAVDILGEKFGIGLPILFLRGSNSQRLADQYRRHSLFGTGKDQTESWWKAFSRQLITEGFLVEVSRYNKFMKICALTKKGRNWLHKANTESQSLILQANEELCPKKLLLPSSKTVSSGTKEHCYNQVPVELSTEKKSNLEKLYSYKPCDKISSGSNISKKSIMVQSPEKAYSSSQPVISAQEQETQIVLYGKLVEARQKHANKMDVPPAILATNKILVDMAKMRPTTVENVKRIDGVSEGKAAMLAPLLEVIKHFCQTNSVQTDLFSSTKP
Source text: An ATPase assay was set up to measure the DNA dependent ATP hydrolysis activity of WRN helicase. This assay was used also to assess the inhibition properties of compounds of the invention on DNA dependent WRN ATPase activity.
The core helicase motif of the WRN protein (aa N517-P1238) was produced for this assay (protein production as described above). […] The ADP-Glo assay kit (Promega, Madison, WI) allowing the quantification of ADP produced in ATP hydrolysis reactions was used for setting up this assay.
Time course experiments were first performed in order to determine the best enzymatic assay conditions (including buffer conditions, reaction time and concentrations of protein, ATP and DNA substrates). A typical reaction consists of 10 nM WRN protein, 0.2 nM FLAP26, and 300 micromolar ATP in the following assay buffer: 30 mM Tris pH7.5, 2 mM MgCl2, 0.02% BSA, 50 mM NaCl, 0.1% pluronic F127 prepared in DNAse free water. To evaluate the inhibition properties of compounds of the invention, serial dilutions were prepared in DMSO (10 half log dilutions from a 10 mM DMSO solution). […] The reaction was started by addition of 2.5 microliters of FLAP26 at 0.4 nM and incubated for 30 minutes at room temperature. The reaction was stopped with the addition of 5 microliters of the first ADP-Glo reagent and incubated for one hour to remove the excess amount of ATP. Afterwards, 10 microliters of ATP detection reagent was added and incubated for an additional hour before reading. Luminescence output was recorded using Tecan 1000 reader, with 5 minutes delay before reading. Each concentration of compound was tested in duplicates in the assay plate.
Following normalization of activity values for the wells to % inhibition (% inhibition=[(high control-sample)/(high control-low control)]×100), IC50 fitting was carried out from the duplicate determinations present on each plate according to [4]. Data analysis can also be carried out using commercially available software designed to derive IC50 values using 4-parameter fits (e.g. GraphPad Prism, XL fit). The reported IC50 values are the geometrical means of at least 2 independent replicates.

[1] = Homo sapiens, SW48, read-out: Proliferation Assay SW48 (GI50)

CCc1c(N2CCN(C(=O)c3ncccc3O)CC2)c(=O)n2nc(C3=CCCCO3)nc2n1CC(=O)Nc1ccc(C(F)(F)F)cc1Cl [Example 32, N-(2-chloro-4-(trifluoromethyl)phenyl)-2-(2-(3,4-dihydro-2H-pyran-6-yl)-5-ethyl-6-(4-(3-hydroxypicolinoyl)piperazin-1-yl)-7-oxo-[1,2,4]triazolo[1,5-a]pyrimidin-4(7H)-yl)acetamide]
GI50 (DLD1-WRN-KO cells; Homo sapiens): 7600 nM | GI50 (SW48 cells; [1]): 60 nM | IC50 (WRN helicase): 60 nM

CCc1c(N2CCN(C(=O)c3ncnc(C)c3O)CC2)c(=O)n2nc(C3=CCCCO3)nc2n1CC(=O)Nc1ccc(C(F)(F)F)nc1C [Example 31, 2-(2-(3,4-dihydro-2H-pyran-6-yl)-5-ethyl-6-(4-(5-hydroxy-6-methylpyrimidine-4-carbonyl)piperazin-1-yl)-7-oxo-[1,2,4]triazolo[1,5-a]pyrimidin-4(7H)-yl)-N-(2-methyl-6-(trifluoromethyl)pyridin-3-yl)acetamide]
GI50 (DLD1-WRN-KO cells; Homo sapiens): > 10000 nM | GI50 (SW48 cells; [1]): 320 nM | IC50 (WRN helicase): 230 nM

CCc1c(N2CCN(C(=O)c3nccc(Cl)c3O)CC2)c(=O)n2nc(C3=CCOCC3)nc2n1CC(=O)Nc1ccc(C(F)(F)F)nc1C [Example 36, 2-(6-(4-(4-chloro-3-hydroxypicolinoyl)piperazin-1-yl)-2-(3,6-dihydro-2H-pyran-4-yl)-5-ethyl-7-oxo-[1,2,4]triazolo[1,5-a]pyrimidin-4(7H)-yl)-N-(2-methyl-6-(trifluoromethyl)pyridin-3-yl)acetamide]
GI50 (DLD1-WRN-KO cells; Homo sapiens): > 10000 nM | GI50 (SW48 cells; [1]): 1780 nM | IC50 (WRN helicase): 930 nM

CCc1c(N2CCN(C(=O)c3ncnc(C)c3O)CC2)c(=O)n2nc(C3=CCOCC3)nc2n1CC(=O)Nc1cc(F)c(C=O)cc1C [Example 54, 2-(2-(3,6-dihydro-2H-pyran-4-yl)-5-ethyl-6-(4-(5-hydroxy-6-methylpyrimidine-4-carbonyl)piperazin-1-yl)-7-oxo-[1,2,4]triazolo[1,5-a]pyrimidin-4(7H)-yl)-N-(5-fluoro-4-formyl-2-methylphenyl)acetamide]
GI50 (DLD1-WRN-KO cells; Homo sapiens): > 10000 nM | GI50 (SW48 cells; [1]): 6010 nM | IC50 (WRN helicase): 1300 nM

CCc1c(N2CCN(C(=O)c3ncnc(C)c3O)[C@H](C)C2)c(=O)n2nc(C3=CCOCC3)nc2n1CC(=O)Nc1ccc(C(F)(F)F)cc1Cl [Example 86, (R)—N-(2-chloro-4-(trifluoromethyl)phenyl)-2-(2-(3,6-dihydro-2H-pyran-4-yl)-5-ethyl-6-(4-(5-hydroxy-6-methylpyrimidine-4-carbonyl)-3-methylpiperazin-1-yl)-7-oxo-[1,2,4]triazolo[1,5-a]pyrimidin-4(7H)-yl)acetamide]
GI50 (DLD1-WRN-KO cells; Homo sapiens): > 10000 nM | GI50 (SW48 cells; [1]): 80 nM | IC50 (WRN helicase): 90 nM

CCc1c(N2CCN(C(=O)c3ncccc3O)CC2)c(=O)n2nc(-c3ccc(C)nc3)nc2n1CC(=O)Nc1ccc(C(F)(F)F)cc1C [Example 77, 2-(5-ethyl-6-(4-(3-hydroxypicolinoyl)piperazin-1-yl)-2-(6-methylpyridin-3-yl)-7-oxo-[1,2,4]triazolo[1,5-a]pyrimidin-4(7H)-yl)-N-(2-methyl-4-(trifluoromethyl)phenyl)acetamide]
GI50 (DLD1-WRN-KO cells; Homo sapiens): > 10000 nM | GI50 (SW48 cells; [1]): 380 nM | IC50 (WRN helicase): 210 nM

CCc1c(N2CCN(C(=O)c3ncnc(C)c3O)[C@@H](C)[C@@H]2C)c(=O)n2nc(C3=CCOCC3)nc2n1CC(=O)Nc1ccc(C(F)(F)F)cc1Cl [Example 120, N-(2-chloro-4-(trifluoromethyl)phenyl)-2-(2-(3,6-dihydro-2H-pyran-4-yl)-5-ethyl-6-((2S,3S)-4-(5-hydroxy-6-methylpyrimidine-4-carbonyl)-2,3-dimethylpiperazin-1-yl)-7-oxo-[1,2,4]triazolo[1,5-a]pyrimidin-4(7H)-yl)acetamide]
GI50 (DLD1-WRN-KO cells; Homo sapiens): > 10000 nM | GI50 (SW48 cells; [1]): 930 nM | IC50 (WRN helicase): 470 nM

CCc1c(N2CCN(C(=O)c3ncnc(C)c3O)C[C@@H]2C)c(=O)n2nc(C3=CCOCC3)nc2n1CC(=O)Nc1ccc(C(F)(F)F)cc1Cl [Example 87, (S)—N-(2-chloro-4-(trifluoromethyl)phenyl)-2-(2-(3,6-dihydro-2H-pyran-4-yl)-5-ethyl-6-(4-(5-hydroxy-6-methylpyrimidine-4-carbonyl)-2-methylpiperazin-1-yl)-7-oxo-[1,2,4]triazolo[1,5-a]pyrimidin-4(7H)-yl)acetamide]
GI50 (DLD1-WRN-KO cells; Homo sapiens): > 10000 nM | GI50 (SW48 cells; [1]): 60 nM | IC50 (WRN helicase): 110 nM

CCc1c(N2CCN(C(=O)c3ncccc3O)CC2)c(=O)n2nc(N3CCOCC3)nc2n1CC(=O)Nc1cc(F)c(C(F)(F)F)cc1C [Example 5, 2-(5-ethyl-6-(4-(3-hydroxypicolinoyl)piperazin-1-yl)-2-morpholino-7-oxo-[1,2,4]triazolo[1,5-a]pyrimidin-4(7H)-yl)-N-(5-fluoro-2-methyl-4-(trifluoromethyl)phenyl)acetamide]
GI50 (DLD1-WRN-KO cells; Homo sapiens): > 10000 nM | GI50 (SW48 cells; [1]): 120 nM | IC50 (WRN helicase): 90 nM

CCc1c(N2CCN(C(=O)c3ncccc3O)CC2)c(=O)n2nc(N3CCC[C@H](F)C3)nc2n1CC(=O)Nc1ccc(C(F)(F)F)cc1C [Example 14b, (S)-2-(5-ethyl-2-(3-fluoropiperidin-1-yl)-6-(4-(3-hydroxypicolinoyl)piperazin-1-yl)-7-oxo-[1,2,4]triazolo[1,5-a]pyrimidin-4(7H)-yl)-N-(2-methyl-4-(trifluoromethyl)phenyl)acetamide]
GI50 (DLD1-WRN-KO cells; Homo sapiens): > 10000 nM | GI50 (SW48 cells; [1]): 260 nM | IC50 (WRN helicase): 90 nM

CCc1c(N2CCN(C(=O)c3ncccc3O)CC2)c(=O)n2nc(C3=CCOCC3)nc2n1CC(=O)Nc1cc(F)c(C(F)(F)F)cc1C [Example 94, 2-(2-(3,6-dihydro-2H-pyran-4-yl)-5-ethyl-6-(4-(3-hydroxypicolinoyl)piperazin-1-yl)-7-oxo-[1,2,4]triazolo[1,5-a]pyrimidin-4(7H)-yl)-N-(5-fluoro-2-methyl-4-(trifluoromethyl)phenyl)acetamide]
GI50 (DLD1-WRN-KO cells; Homo sapiens): > 10000 nM | GI50 (SW48 cells; [1]): 50 nM | IC50 (WRN helicase): 40 nM

CCc1c(N2CCN(C(=O)c3ncccc3O)CC2)c(=O)n2nc(N3CCC[C@@H](F)C3)nc2n1CC(=O)Nc1ccc(C(F)(F)F)cc1C [Example 14a, (R)-2-(5-ethyl-2-(3-fluoropiperidin-1-yl)-6-(4-(3-hydroxypicolinoyl)piperazin-1-yl)-7-oxo-[1,2,4]triazolo[1,5-a]pyrimidin-4(7H)-yl)-N-(2-methyl-4-(trifluoromethyl)phenyl)acetamide]
GI50 (DLD1-WRN-KO cells; Homo sapiens): > 10000 nM | GI50 (SW48 cells; [1]): 370 nM | IC50 (WRN helicase): 80 nM

CCc1c(N2CCN(C(=O)c3ncccc3O)CC2)c(=O)n2nc(N3CCOCC3)nc2n1CC(=O)Nc1cc(C(F)(F)F)c(Cl)cc1C [Example 12, N-(4-chloro-2-methyl-5-(trifluoromethyl)phenyl)-2-(5-ethyl-6-(4-(3-hydroxypicolinoyl)piperazin-1-yl)-2-morpholino-7-oxo-[1,2,4]triazolo[1,5-a]pyrimidin-4(7H)-yl)acetamide]
GI50 (DLD1-WRN-KO cells; Homo sapiens): > 10000 nM | GI50 (SW48 cells; [1]): 550 nM | IC50 (WRN helicase): 130 nM

CCc1c(N2CCN(C(=O)c3ncnc(C)c3O)[C@H]3CC[C@@H]32)c(=O)n2nc(C3=CCOCC3)nc2n1CC(=O)Nc1ccc(C(F)(F)F)cc1Cl [Example 125, N-(2-chloro-4-(trifluoromethyl)phenyl)-2-(2-(3,6-dihydro-2H-pyran-4-yl)-5-ethyl-6-((1 S,6S)-5-(5-hydroxy-6-methylpyrimidine-4-carbonyl)-2,5-diazabicyclo[4.2.0]octan-2-yl)-7-oxo-[1,2,4]triazolo[1,5-a]pyrimidin-4(7H)-yl)acetamide]
GI50 (DLD1-WRN-KO cells; Homo sapiens): > 10000 nM | GI50 (SW48 cells; [1]): 10 nM | IC50 (WRN helicase): 30 nM

CCc1c(N2CCN(C(=O)c3ncccc3O)CC2)c(=O)n2nc(C3=CC[C@H](OC)CC3)nc2n1CC(=O)Nc1ccc(C(F)(F)F)nc1Cl (single isomer, unassigned) [Example 25b, ((R)—N-(2-chloro-6-(trifluoromethyl)pyridin-3-yl)-2-(5-ethyl-6-(4-(3-hydroxypicolinoyl)piperazin-1-yl)-2-(4-methoxycyclohex-1-en-1-yl)-7-oxo-[1,2,4]triazolo[1,5-a]pyrimidin-4(7H)-yl)acetamide) or ((S)—N-(2-chloro-6-(trifluoromethyl)pyridin-3-yl)-2-(5-ethyl-6-(4-(3-hydroxypicolinoyl)piperazin-1-yl)-2-(4-methoxycyclohex-1-en-1-yl)-7-oxo-[1,2,4]triazolo[1,5-a]pyrimidin-4(7H)-yl)acetamide)]
GI50 (DLD1-WRN-KO cells; DLD1-WRN-KO cell line, geometric means of at least 2 determinations): > 10000 nM | GI50 (SW48 cells; read-out: Proliferation Assay SW48 (GI50), SW48 cell line, geometric means of at least 2 determinations): 50 nM | IC50 (WRN helicase): 100 nM
